The conditions of data set [1]: mouse, in vivo; cited from earlier work.
The next data set deals with human keratinocytes. Particulars: for blebbing response of keratinocytes: compound added to human keratinocytes, vehicle DMSO. An excerpt:
(§1) The third step is that this residue (C54) is situated in a stretch of K5 that has been shown through its interactions with desmoplakin, to be vital in maintaining the integrity of the desmosome. It is known that epithelial cells with a compromised cell-cell (and/or cell-matrix) contact undergo apoptosis (“anoikis”). […] Basal keratinocytes consists of up to 35% of insoluble keratin intermediate filaments (KIFs). As basal keratinocytes occasionally undergo apoptosis, a mechanism of waste removal of the debris of insoluble keratins has evolved. […] The keratin bodies bleb off the cells.

The subject of data set [2] is serum amyloid P component (SAP). As to the kind of experiment: ELISA detection of serum amyloid protein (SAP) in sera of hapten-exposed mice. As to conditions: mice exposed on skin, booster dose on day 10. How it is done: Extreme sensitizers: Oxazolone (4-Ethoxymethylene-2-phenyl-2-oxazolin-5-one, 1.4 mM) CDNB (1-Chloro-2,4-dinitrobenzene, 7.4 mM)); Strong sensitizers: dBBr (48.6 mM), Glyoxal (ethane-1,2-dione, 1.27 M). DMSO was used as control. All chemicals are purchased from Sigma-Aldrich (Stockholm, Sweden).
Apply 25 μl of the solution to the back of both ears (25 μl on each ear), once daily, on day 1, 2 and 3. Apply a booster dose on day 10 (if necessary). Sacrifice the mice on day 6 (or day 13 if a booster dose is used) by anesthetization with isoflurane (Kent Scientific Corporation, Torrington, Conn., USA) followed by inhalation of carbon dioxide (AGA, Lidingö, Sverige). To collect blood: Use a 1 ml syringe (B. Braun Medical Inc., Bethlehem, Pa., USA) with a 0.4 mm×12 mm injection needle (B. Braun Medical Inc., Bethlehem, Pa., USA). Place the tip of the needle just below the breastbone so that the syringe is linear to the abdomen. Insert the needle just below the breastbone and press it towards the heart. When inside the heart, withdraw blood. It is important to loosen the piston a little from the bottom of the syringe before inserting into the mouse. Carefully rotate the syringe during withdrawal to avoid clotting. […]
The SAP Mouse, ELISA kit 96 tests, quantitative (Alpha Diagnostics International Inc., San Antonio, Tex., USA) is used. […]
On the technique in general: In an ELISA, binding on a coated surface is turned into a signal by an enzyme label.

In data set [3] the test system is anti-nuclear antibodies (ANA). As to the kind of experiment: Levels of anti-nuclear antibodies (ANA) after contact with sensitizing compounds. As to conditions: contact with sensitizing compound.
In another data set the test system is K5 and K14. As to the kind of experiment: Western blot of blebs using K5 and K14 antibodies. Format: cell-based, human. As to conditions: blebs from hapten-exposed keratinocytes.
Text: Elevated levels of ANA are common features in various autoimmune diseases such as Sjögrens syndrome (SS), rheumatoid arthritis (RA) and systemic lupus erythematosus (SLE).
as §1

For data set [4] the following is noted: naïve mice; cited from earlier work.
The next data set concerns keratins. As to the kind of experiment: Cross-linking of bleb proteins by bidentate haptens. As to conditions: bidentate hapten. Also on record: species or system human. The text has this: In SDS-PAGE experiments it was shown that thiol-, amine-, and arginine-reactive sensitizers give rise to blebs that contain the same protein bands. In this step, it is thus shown that by adding haptens to keratinocytes, the haptens induce expulsion of a high amount of cryptic epitopes that are normally concealed from the immune system through their intracellular location and/or neoepitopes consisting of haptenated/differently processed peptides and proteins. It was also shown, using a LTQ-FT-ICR mass spectrometer coupled to a nanospray source, that the blebs contain other proteins, for example peptidyl-prolyl cis-trans isomerase A, stathmin, calmodulin, cofilin-1, transgelin-2, 14-3-3 protein sigma, annexin A2, tubulin, keratin 6A 6B 6C, transitional endoplasmic reticulum ATPase, endoplasmin, and importin-5. […] It was also shown that the sensitizing compounds also modify other proteins and that these proteins are released in blebs, as visualized by fluorescent bands on SDS-gels.

The target in a further data set is T1, cysteine 54 (C54) of K5 (Homo sapiens, UniProt P13647).
T1 construct: endogenous in cells; host or cells: living (primary) human keratinocytes and intact full-thickness human skin
T1 sequence (P13647 1-590): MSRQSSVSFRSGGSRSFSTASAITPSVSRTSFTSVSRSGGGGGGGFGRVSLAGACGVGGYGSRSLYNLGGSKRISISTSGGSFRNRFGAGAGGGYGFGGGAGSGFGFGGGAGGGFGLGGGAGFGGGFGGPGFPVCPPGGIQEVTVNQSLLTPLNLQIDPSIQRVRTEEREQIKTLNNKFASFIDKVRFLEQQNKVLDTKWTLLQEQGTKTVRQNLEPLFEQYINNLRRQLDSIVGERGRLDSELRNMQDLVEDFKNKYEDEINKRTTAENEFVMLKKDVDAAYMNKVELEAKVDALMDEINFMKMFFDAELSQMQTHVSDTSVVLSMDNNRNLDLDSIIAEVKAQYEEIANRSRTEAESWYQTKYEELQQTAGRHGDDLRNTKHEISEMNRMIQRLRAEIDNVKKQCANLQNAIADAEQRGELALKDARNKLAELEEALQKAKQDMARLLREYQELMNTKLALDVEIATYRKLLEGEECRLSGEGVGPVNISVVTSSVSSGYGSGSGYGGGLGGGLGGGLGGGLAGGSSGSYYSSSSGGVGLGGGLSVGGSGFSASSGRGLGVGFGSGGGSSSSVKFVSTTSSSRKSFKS
T1 sequence (P02533 1-472 partner): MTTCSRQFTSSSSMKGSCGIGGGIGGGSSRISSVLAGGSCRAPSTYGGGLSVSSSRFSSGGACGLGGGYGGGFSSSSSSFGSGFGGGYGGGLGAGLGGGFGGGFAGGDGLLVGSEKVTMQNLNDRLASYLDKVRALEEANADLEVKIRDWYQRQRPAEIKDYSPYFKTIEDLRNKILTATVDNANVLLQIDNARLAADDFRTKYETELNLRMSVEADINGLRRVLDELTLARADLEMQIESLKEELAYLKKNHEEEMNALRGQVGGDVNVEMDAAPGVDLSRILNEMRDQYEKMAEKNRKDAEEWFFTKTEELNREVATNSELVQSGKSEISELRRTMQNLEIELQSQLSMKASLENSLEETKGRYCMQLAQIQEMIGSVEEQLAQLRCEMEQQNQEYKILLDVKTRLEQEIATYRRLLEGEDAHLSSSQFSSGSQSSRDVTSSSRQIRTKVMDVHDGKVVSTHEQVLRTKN
As to the kind of experiment: Identification of haptenation site with LTQ-FT-ICR mass spectrometer. The text has this:
The second step is that the molecules enter the basal cells. Since the extracellular environment is oxidizing, extracellular cysteines are mostly oxidized to disulfides. However, it is in the reduced, intracellular environment that the haptens find reduced thiols to react with. Once inside the cells the compounds will react with available (i.e. not sterically hindered) reduced cysteines (thiol groups). […] Furthermore, it was identified that one of the cysteines that the haptens react with is cysteine 54 (C54) of K5. […] One of the reasons for intense reaction at C54 is presumably its high effective concentration just inside the cell membrane. It is vital in the life of an organism to fail-safe its epithelial integrity, and the bundling of the KIFs ensures a high effective local concentration of the peptide stretch containing C54, ensuring strong welding of the cell to its surroundings. Amino acids nearby in the primary sequence are consequently also located within physical reach of an incoming compound in similarly high effective concentrations. Looking at blebbing brought on by amine- and arginine-reactive compounds from this angle, the residues K71 and R72 are the closest candidates in the primary sequence.

Data set [5] in a line: Induction of oral tolerance in humans allergic to cinnamic aldehyde. The class given is in vivo, human. As to conditions: once a day for 5-100 days, vs placebo (tap water). The text has this: Peptides (including, but not limited to): 1: [Ace]-[…]-[Amide]; 2: [Ace]-[…]-[Amide], 3: [Ace]-[…]-[Amide]. The peptides 1 and 2 represent sequences from keratin 5 and peptide 3 is derived from keratin 14; however, it is the intention that the invention also includes peptides and/or proteins from other proteins, e.g. such as those found in the blebs from keratinocytes that have been exposed to haptens.
Preparation of amino acid containing epitope targets as described in example 3.
Of 20 individuals with a confirmed allergy to the hapten cinnamic aldehyde, 10 are given a test solution of 0.5 mg to 10 g amino acid containing epitope target 1 once a day for 5-100 days. The other 10 individuals are given a placebo (i.e. tap water) to drink according to the same administration scheme and time table as described above. The antibody and T cell epitope mapping profiles for each individual are then evaluated according to procedures in example 4 and 5. Each individual is also patch-tested with cinnamic aldehyde.

“Also recorded” adds a separate entry of the source.

As for `O=c1[nH]sc2ccccc12` [1,2-Benzisothiazolin-3-one], in data set [1], the “sensitizer class by EC3-value” is “Moderate (key: Extreme: For extreme sensitizers (EC3<0.1%); Strong: For strong sensitizers (0.1%<EC3<1%); Moderate: For moderate sensitizers (1%<EC3<10%); Weak: For weak sensitizers (EC3>10%))”.
Take `O=[N+]([O-])c1ccc(Cl)c([N+](=O)[O-])c1` [CDNB, 1-Chloro-2,4-dinitrobenzene]: the “blebbing response of keratinocytes” value with human keratinocytes is on record as “provoke a blebbing response”. In [2], the “levels of SAP protein in sera” value is “increased levels”. In addition, in data set [1], the “sensitizer class by EC3-value” was “Extreme (key: Extreme: For extreme sensitizers (EC3<0.1%); Strong: For strong sensitizers (0.1%<EC3<1%); Moderate: For moderate sensitizers (1%<EC3<10%); Weak: For weak sensitizers (EC3>10%))”. Moreover, the “levels of anti-nuclear antibodies (ANA)” value in [3] is given as “increased levels”.
For the compound `C=O` [Formaldehyde], in data set [1], the “sensitizer class by EC3-value” was “Strong (key: Extreme: For extreme sensitizers (EC3<0.1%); Strong: For strong sensitizers (0.1%<EC3<1%); Moderate: For moderate sensitizers (1%<EC3<10%); Weak: For weak sensitizers (EC3>10%))”.
As to `O=CC=O` [Glyoxal, ethane-1,2-dione], the “blebbing response of keratinocytes” value in the data set with human keratinocytes was “provoke a blebbing response”. In addition, the “keratins (K5 and K14) in blebs” value in the data set with K5 and K14 is “contain K5 and K14; also recorded: also contain keratins”. Further, in [2], the “levels of SAP protein in sera” value is recorded as “increased levels”. Moreover, the “sensitizer class by EC3-value” in data set [1] is “Strong (key: Extreme: For extreme sensitizers (EC3<0.1%); Strong: For strong sensitizers (0.1%<EC3<1%); Moderate: For moderate sensitizers (1%<EC3<10%); Weak: For weak sensitizers (EC3>10%))”. Moreover, the “levels of anti-nuclear antibodies (ANA)” value in data set [3] is recorded as “increased levels”.
For `CCOC=C1N=C(c2ccccc2)OC1=O` [Oxazolone, 4-Ethoxymethylene-2-phenyl-2-oxazolin-5-one], the “blebbing response of keratinocytes” value in the data set with human keratinocytes is reported as “provoke a blebbing response”. Further, the “keratins (K5 and K14) in blebs” value in the data set on K5 and K14 was “contain K5 and K14; also recorded: also contain keratins”. In addition, the “protection against the hapten after tolerance induction” value in data set [4] was “some protection”. For the same compound, the “levels of anti-nuclear antibodies (ANA)” value in [3] is listed as “increased levels”.
In the case of `O=CCc1ccccc1` [Phenylacetaldehyde], the “sensitizer class by EC3-value” in [1] is “Moderate (key: Extreme: For extreme sensitizers (EC3<0.1%); Strong: For strong sensitizers (0.1%<EC3<1%); Moderate: For moderate sensitizers (1%<EC3<10%); Weak: For weak sensitizers (EC3>10%))”.
Consider `CCCCCCCCCCCCOS(=O)(=O)[O-].[Na+]` [SDS, Sodium dodecyl sulphate], for which the “cellular response other than blebbing” value in the data set on human keratinocytes (human keratinocytes exposed to compound) is on record as “cells seem to “dissolve””.
Take `Cc1c(CBr)n2c(CBr)c(C)c(=O)n2c1=O` [dBBr, dibromobimane]: in the data set with keratins, the “cross links between proteins” value is “cause cross links between for example keratins”. Also, the “levels of anti-nuclear antibodies (ANA)” value in data set [3] is on record as “increased levels”.
Regarding `Cc1c(C)n2c(CBr)c(C)c(=O)n2c1=O` [mBBr], the “covalent modification of C54 of K5” value is reported as “modifies C54 of K5” on cysteine 54 (C54) of K5 (intact, full-thickness human skin) and “modify C54 of K5; also recorded: modifies C54 of K5” on cysteine 54 (C54) of K5 (living human keratinocytes).
Turning to `[Ni]` [nickel], the “protection against the hapten after tolerance induction” value in data set [4] is recorded as “some protection”.
Turning to `CCCCCCC(C=O)=Cc1ccccc1` [α-Hexyl-cinnamicaldehyde], the “sensitizer class by EC3-value” in data set [1] is recorded as “Weak (key: Extreme: For extreme sensitizers (EC3<0.1%); Strong: For strong sensitizers (0.1%<EC3<1%); Moderate: For moderate sensitizers (1%<EC3<10%); Weak: For weak sensitizers (EC3>10%))”.
For “[Ace]-VSLGGACGAGGYG-[Amide] [amino acid containing epitope target 1]”, in data set [5], the “antibodies and T cells against the amino acid containing epitope target” value was “less antibodies and T cells”; the “reaction to cinnamic aldehyde in the patch test” value was “less reaction”.
